According to article PMC12892976, “Alkylation-based optimization of antifungal FPPS inhibitors yields a potent, broad-spectrum lipophilic zoledronate derivative” (mBio, 2025):
Where two headings read alike, the source gives them in different places.

Key:
Trichophyton rubrum [1] = assay: checkerboard drug interaction (FICI, MICc);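 note: simplified diagonal checkerboard screen pairing azole antifungals with FPPS inhibitors, FICI calculated under the Loewe additivity model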; format: cell-based; settings: T. rubrum
Experimental: (§1) Drug interactions between antifungals and FPPS inhibitors were investigated using a simplified checkerboard diagonal screening method ([45]). […] FICIs were determined according to the Loewe additivity model ([17]).

Saccharomyces cerevisiae [2] = assay: MIC/MFC broth microdilution (CLSI); format: cell-based; settings: Saccharomyces cerevisiae S288c
Experimental: (§2) Antifungal susceptibility was determined by broth microdilution according to the CLSI guidelines described in M27-Ed4 ([16]). […] MFC was determined by back-plating drug-treated cultures from MIC broths onto SDA plates. The MFC was defined as the lowest concentration from which no colonies could be cultured.

Candida glabrata [3] = assay: MIC/MFC broth microdilution (CLSI); settings: Nakaseomyces glabratus, CBS138;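 note: broth microdilution following CLSI M27-Ed4, MFC taken as the lowest drug level yielding no growth once MIC wells were subcultured on SDA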
Experimental: as §2

Cryptococcus neoformans [4] = assay: checkerboard drug interaction (FICI, MICc);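 for all read-outs here: antifungal plus FPPS inhibitor pairs tested against Cryptococcus neoformans by simplified diagonal checkerboard screening, FICI computed under the Loewe additivity model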; format: cell-based; settings: C. neoformans; for INH FD (MIC-MICc fold decrease): fold decrease of inhibitor MIC
Experimental: as §1

Candida glabrata [5] = assay: checkerboard drug interaction (FICI, MICc);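 for all read-outs here: simplified diagonal checkerboard screen pairing antifungals with FPPS inhibitors, FICI calculated under the Loewe additivity model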; format: cell-based; settings: C. glabrata; for INH FD (MIC-MICc fold decrease): fold decrease of inhibitor MIC
Experimental: as §1

Saccharomyces cerevisiae [6] = assay: checkerboard drug interaction (FICI, MICc);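 for all read-outs here: simplified diagonal checkerboard screen pairing antifungals with FPPS inhibitors, FICI calculated under the Loewe additivity model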; format: cell-based; design: INH MICc / INH MICc (ITR:INH) / INH MICc (KET:INH) / INH MICc (FLC:INH): unit not given beside the values; settings: S. cerevisiae; for INH FD (MIC-MICc fold decrease): fold decrease of inhibitor MIC
Trichophyton rubrum [7] = assay: MIC/MFC broth microdilution (CLSI); settings: Trichophyton rubrum
Experimental: as §2

Aspergillus flavus [8] = assay: MIC/MFC broth microdilution (CLSI); settings: ATCC204304
Experimental: as §2

Aspergillus fumigatus [9] = assay: MIC/MFC broth microdilution (CLSI); settings: ATCC204305
Experimental: as §2

Candida albicans [10] = assay: MIC/MFC broth microdilution (CLSI); format: cell-based; settings: Candida albicans SC5314
Experimental: as §2

Candida albicans [11] = assay: checkerboard drug interaction (FICI, MICc);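 for all read-outs here: antifungal plus FPPS inhibitor combinations on Candida albicans tested by a simplified diagonal checkerboard screen, with FICI calculated under the Loewe additivity model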; format: cell-based; settings: C. albicans; for INH FD (MIC-MICc fold decrease): fold decrease of inhibitor MIC
Experimental: as §1

[12] = system: Cryptococcus deuterogattii; assay: MIC/MFC broth microdilution (CLSI); settings: Cryptococcus deuterogattii;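 note: broth microdilution per CLSI M27-Ed4. MFC is the lowest concentration yielding no colonies when MIC broths are subcultured onto SDA plates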
Experimental: as §2

[13] = system: Cryptococcus deuterogattii; assay: checkerboard drug interaction (FICI, MICc);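 for all read-outs here: simplified diagonal checkerboard screen pairing antifungal drugs with FPPS inhibitors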; format: cell-based; settings: C. deuterogattii; for INH FD (MIC-MICc fold decrease): fold decrease of inhibitor MIC
Experimental: as §1

Aspergillus fumigatus [14] = assay: checkerboard drug interaction (FICI, MICc);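 for all read-outs here: simplified diagonal checkerboard screen pairing antifungals with FPPS inhibitors against Aspergillus fumigatus, with FICI calculated under the Loewe additivity model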; format: cell-based; settings: A. fumigatus; for INH FD (MIC-MICc fold decrease): fold decrease of inhibitor MIC
Experimental: as §1

Aspergillus flavus [15] = assay: checkerboard drug interaction (FICI, MICc);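 note: simplified diagonal checkerboard screen pairing azole antifungals with FPPS inhibitors, FICI calculated under the Loewe additivity model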; format: cell-based; design: INH MICc (KET:INH) / INH MICc (FLC:INH): unit not given beside the values; settings: A. flavus
eight fungal species [16] = assay: MIC/MFC summary across the eight fungal species of Table 1; format: cell-based
Experimental: The antifungal activity of these compounds was evaluated according to CLSI guidelines ([16]).

eight fungal species [17] = assay: checkerboard interaction with azoles, summary across the eight species; format: cell-based; settings: geometric mean MIC in combination with azoles
From the text: Synergy between lipophilic FPPS inhibitors and azole antifungals was investigated by determining the fractional inhibitory concentration index (FICI) (Fig. 2; Table S1 Fig. S1) ([17]). […]. Derivatives PLA9 and 11, and PDA9, 11, and 12 antagonized azoles in C. albicans, C. neoformans, and C. deuterogattii, yet were largely synergistic in C. glabrata and S. cerevisiae. […].

HEK-293T cells = assay: MTT reduction cytotoxicity assay; format: cell-based; settings: Homo sapiens, HEK-293T, 72 h, HEK-293T, MTT, 72 h; read-out: HEK IC50
Cryptococcus neoformans [18] = assay: MIC/MFC broth microdilution (CLSI); settings: Cryptococcus neoformans;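 note: susceptibility testing followed the CLSI M27-Ed4 broth microdilution document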
Experimental: as §2

[19] = Fractional Inhibitory Concentration Index, fluconazole + inhibitor
[20] = Fractional Inhibitory Concentration Index, itraconazole + inhibitor
[21] = Fractional Inhibitory Concentration Index, ketoconazole + inhibitor
[22] = MIC of the inhibitor in combination with fluconazole
[23] = MIC of the inhibitor in combination with itraconazole
[24] = MIC of the inhibitor in combination with ketoconazole
[25] = MIC-MICc fold decrease of fluconazole, negative = increase
[26] = MIC-MICc fold decrease of itraconazole, negative = increase
[27] = MIC-MICc fold decrease of ketoconazole, negative = increase
[28] = MIC-MICc fold decrease of the inhibitor, with fluconazole
[29] = MIC-MICc fold decrease of the inhibitor, with itraconazole
[30] = MIC-MICc fold decrease of the inhibitor, with ketoconazole
[31] = FLC:INH combination, MIC of the inhibitor in combination with FLC
[32] = FLC:INH combination, fold decrease of FLC MIC
[33] = ITR:INH combination, MIC of the inhibitor in combination with ITR
[34] = ITR:INH combination, fold decrease of ITR MIC
[35] = KET:INH combination, MIC of the inhibitor in combination with KET
[36] = KET:INH combination, fold decrease of KET MIC
[37] = FLC:INH combination, MIC of FLC in combination with the inhibitor
[38] = ITR:INH combination, MIC of ITR in combination with the inhibitor
[39] = KET:INH combination, MIC of KET in combination with the inhibitor

CCCCCCCCCN1CCC[C@H]1C(=O)N[C@@H](CC(=O)O)C(=O)O [PLA9]
FICI (FLC:INH) (Trichophyton rubrum [1]; [19]): 3
FICI (ITR:INH) (Trichophyton rubrum [1]; [20]): 2
FICI (KET:INH) (Trichophyton rubrum [1]; [21]): 1.5
INH MICc (FLC:INH) (Trichophyton rubrum [1]; [22]): 256
INH MICc (ITR:INH) (Trichophyton rubrum [1]; [23]): 256
INH MICc (KET:INH) (Trichophyton rubrum [1]; [24]): 128
FLC FD (FLC:INH) (Trichophyton rubrum [1]; [25]): -2
ITR FD (ITR:INH) (Trichophyton rubrum [1]; [26]): 1
KET FD (KET:INH) (Trichophyton rubrum [1]; [27]): 1
INH FD (FLC:INH) (Trichophyton rubrum [1]; [28]): 1
INH FD (ITR:INH) (Trichophyton rubrum [1]; [29]): 1
INH FD (KET:INH) (Trichophyton rubrum [1]; [30]): 2
MFC (Saccharomyces cerevisiae [2]): > 128 µg/mL
MIC (Saccharomyces cerevisiae [2]): > 128 µg/mL
MFC (Candida glabrata [3]): > 128 µg/mL
MIC (Candida glabrata [3]): > 128 µg/mL
FICI (Cryptococcus neoformans [4]; FLC:INH combination): ≥4
INH MICc (Cryptococcus neoformans [4]; [31]): 256
FLC FD (MIC-MICc fold decrease) (Cryptococcus neoformans [4]; [32]): < -4
INH FD (MIC-MICc fold decrease) (Cryptococcus neoformans [4]; FLC:INH combination): 1
FICI (Cryptococcus neoformans [4]; ITR:INH combination): ≥4
INH MICc (Cryptococcus neoformans [4]; [33]): 128
ITR FD (MIC-MICc fold decrease) (Cryptococcus neoformans [4]; [34]): -4
INH FD (MIC-MICc fold decrease) (Cryptococcus neoformans [4]; ITR:INH combination): 2
FICI (Cryptococcus neoformans [4]; KET:INH combination): ≥4
INH MICc (Cryptococcus neoformans [4]; [35]): 128
KET FD (MIC-MICc fold decrease) (Cryptococcus neoformans [4]; [36]): -4
INH FD (MIC-MICc fold decrease) (Cryptococcus neoformans [4]; KET:INH combination): 2
FICI (Candida glabrata [5]; FLC:INH combination): 0.31
INH MICc (Candida glabrata [5]; [31]): 4
FLC FD (MIC-MICc fold decrease) (Candida glabrata [5]; [32]): 4
INH FD (MIC-MICc fold decrease) (Candida glabrata [5]; FLC:INH combination): 64
FICI (Candida glabrata [5]; ITR:INH combination): 0.28
INH MICc (Candida glabrata [5]; [33]): 2
ITR FD (MIC-MICc fold decrease) (Candida glabrata [5]; [34]): 4
INH FD (MIC-MICc fold decrease) (Candida glabrata [5]; ITR:INH combination): 128
FICI (Candida glabrata [5]; KET:INH combination): 0.28
INH MICc (Candida glabrata [5]; [35]): 2
KET FD (MIC-MICc fold decrease) (Candida glabrata [5]; [36]): 4
INH FD (MIC-MICc fold decrease) (Candida glabrata [5]; KET:INH combination): 128
FICI (Saccharomyces cerevisiae [6]; FLC:INH combination): 0.31
FLC MICc (Saccharomyces cerevisiae [6]; [37]): 1
INH MICc (Saccharomyces cerevisiae [6]; [31]): 16
FLC FD (MIC-MICc fold decrease) (Saccharomyces cerevisiae [6]; [32]): 4
INH FD (MIC-MICc fold decrease) (Saccharomyces cerevisiae [6]; FLC:INH combination): 16
FICI (Saccharomyces cerevisiae [6]; ITR:INH combination): 0.5
ITR MICc (Saccharomyces cerevisiae [6]; [38]): 0.063
INH MICc (Saccharomyces cerevisiae [6]; [33]): 64
ITR FD (MIC-MICc fold decrease) (Saccharomyces cerevisiae [6]; [34]): 4
INH FD (MIC-MICc fold decrease) (Saccharomyces cerevisiae [6]; ITR:INH combination): 4
FICI (Saccharomyces cerevisiae [6]; KET:INH combination): 0.19
KET MICc (Saccharomyces cerevisiae [6]; [39]): 0.25
INH MICc (Saccharomyces cerevisiae [6]; [35]): 16
KET FD (MIC-MICc fold decrease) (Saccharomyces cerevisiae [6]; [36]): 8
INH FD (MIC-MICc fold decrease) (Saccharomyces cerevisiae [6]; KET:INH combination): 16
MFC (Trichophyton rubrum [7]): > 128 µg/mL
MIC (Trichophyton rubrum [7]): > 128 µg/mL
MFC (Aspergillus flavus [8]): > 128 µg/mL
MIC (Aspergillus flavus [8]): > 128 µg/mL
MFC (Aspergillus fumigatus [9]): > 128 µg/mL
MIC (Aspergillus fumigatus [9]): > 128 µg/mL
MFC (Candida albicans [10]): > 128 µg/mL
MIC (Candida albicans [10]): > 128 µg/mL
FICI (Candida albicans [11]; FLC:INH combination): ≥4
INH MICc (Candida albicans [11]; [31]): 64
FLC FD (MIC-MICc fold decrease) (Candida albicans [11]; [32]): < -4
INH FD (MIC-MICc fold decrease) (Candida albicans [11]; FLC:INH combination): 4
FICI (Candida albicans [11]; ITR:INH combination): 0.52
INH MICc (Candida albicans [11]; [33]): 4
ITR FD (MIC-MICc fold decrease) (Candida albicans [11]; [34]): 2
INH FD (MIC-MICc fold decrease) (Candida albicans [11]; ITR:INH combination): 64
FICI (Candida albicans [11]; KET:INH combination): ≥4
INH MICc (Candida albicans [11]; [35]): 64
KET FD (MIC-MICc fold decrease) (Candida albicans [11]; [36]): < -4
INH FD (MIC-MICc fold decrease) (Candida albicans [11]; KET:INH combination): 4
MFC [12]: > 128 µg/mL
MIC [12]: > 128 µg/mL
FICI ([13]; FLC:INH combination): ≥4
INH MICc [13, 31]: 256
FLC FD (MIC-MICc fold decrease) [13, 32]: -4
INH FD (MIC-MICc fold decrease) ([13]; FLC:INH combination): 1
FICI ([13]; ITR:INH combination): ≥4
INH MICc [13, 33]: 256
ITR FD (MIC-MICc fold decrease) [13, 34]: < -4
INH FD (MIC-MICc fold decrease) ([13]; ITR:INH combination): 1
FICI ([13]; KET:INH combination): 1
INH MICc [13, 35]: 128
KET FD (MIC-MICc fold decrease) [13, 36]: 2
INH FD (MIC-MICc fold decrease) ([13]; KET:INH combination): 2
FICI (Aspergillus fumigatus [14]; FLC:INH combination): 2
FLC MICc (Aspergillus fumigatus [14]; [37]): 128
INH MICc (Aspergillus fumigatus [14]; [31]): 256
FLC FD (MIC-MICc fold decrease) (Aspergillus fumigatus [14]; [32]): 1
INH FD (MIC-MICc fold decrease) (Aspergillus fumigatus [14]; FLC:INH combination): 1
FICI (Aspergillus fumigatus [14]; ITR:INH combination): 0.51
ITR MICc (Aspergillus fumigatus [14]; [38]): 0.063
INH MICc (Aspergillus fumigatus [14]; [33]): 2
ITR FD (MIC-MICc fold decrease) (Aspergillus fumigatus [14]; [34]): 2
INH FD (MIC-MICc fold decrease) (Aspergillus fumigatus [14]; ITR:INH combination): 128
FICI (Aspergillus fumigatus [14]; KET:INH combination): 1.5
KET MICc (Aspergillus fumigatus [14]; [39]): 4
INH MICc (Aspergillus fumigatus [14]; [35]): 128
KET FD (MIC-MICc fold decrease) (Aspergillus fumigatus [14]; [36]): 1
INH FD (MIC-MICc fold decrease) (Aspergillus fumigatus [14]; KET:INH combination): 2
FICI (FLC:INH) (Aspergillus flavus [15]; [19]): 2
FICI (ITR:INH) (Aspergillus flavus [15]; [20]): 1.5
FICI (KET:INH) (Aspergillus flavus [15]; [21]): 1
INH MICc (FLC:INH) (Aspergillus flavus [15]; [22]): 256
INH MICc (ITR:INH) (Aspergillus flavus [15]; [23]): 128
INH MICc (KET:INH) (Aspergillus flavus [15]; [24]): 128
FLC FD (FLC:INH) (Aspergillus flavus [15]; [25]): 1
ITR FD (ITR:INH) (Aspergillus flavus [15]; [26]): 1
KET FD (KET:INH) (Aspergillus flavus [15]; [27]): 2
INH FD (FLC:INH) (Aspergillus flavus [15]; [28]): 1
INH FD (ITR:INH) (Aspergillus flavus [15]; [29]): 2
INH FD (KET:INH) (Aspergillus flavus [15]; [30]): 2
MFC (eight fungal species [16]; across eight species, read-out: Geometric mean MFC): > 128 µg/mL
MIC (eight fungal species [16]; geometric mean across eight species, read-out: GM fungal MIC): > 128 µg/mL
MIC (eight fungal species [16]; read-out: Geometric mean MIC): > 128 µg/mL
GM fungal MICc (eight fungal species [17]): 53.8
IC50 (HEK-293T cells): > 256 µg/mL
MFC (Cryptococcus neoformans [18]): > 128 µg/mL
MIC (Cryptococcus neoformans [18]): > 128 µg/mL
